We go through 6 compounds from patent US20250171413A1, “ANTIVIRAL INDOLINYL COMPOUNDS AND USES THEREOF” (Gilead Sciences, Inc., priority 2023, published 2025).

Where two headings read alike, the source gives them in different places.

The test system of this experiment is HSV-2 virus (MS strain). Put plainly: HSV-2 Cellomics Assay (immunofluorescence of HSV protein gD). The format is cell-based. On the procedure: Compounds were tested for their ability to inhibit HSV-2 replication by monitoring the expression of the HSV protein gD using a high-throughput immunofluorescence-based assay. 10-dose, 3-fold serial dilutions of compounds were prepared at starting concentrations of 0.2 or 2 mM in 100% DMSO. 250 nl of compounds were spotted in quadruplicates onto black collagen-coated 384-well microplates with clear bottom (Greiner cat #781956) using a Labcyte ECHO acoustic dispenser. The final starting concentration in the assay was either […]. DMSO (no compound) and pritelivir were included on each microplate as negative and positive controls, respectively.
ARPE-19 cells (ATCC cat #CRL-2302) were maintained DMEM/F-12 Glutamax medium (Thermo Fisher Scientific cat #10565018) supplemented with 10% FBS (Corning cat #35-011-CV) and 1% Penicillin-Streptomycin (cat #30-002-CI). Prior to confluence, cells were transferred to a centrifuge tube and spun for 5 minutes at 1000 rpm. Cells were resuspended in assay medium (DMEM/F-12 Glutamax, 2% FBS, 1% Penicillin-Streptomycin) and counted. Cell density was adjusted to 150,000 cells/ml and infected with HSV-2 virus (MS strain, ATCC cat #VR-540) at a MOI of 0.06 in a 50 ml conical tube for 1 hour under constant rocking. Cells were then spun for 5 minutes at 1000 rpm and the media replaced with assay medium containing either 2% FBS or 10% human serum (EMD Millipore cat #S1-100ML). 50 μl of the infection suspension were added into microplate wells that were pre-spotted with compounds (7,500 cells per well). Plates were incubated for 16 hours at 37° C.
Cell culture medium was aspirated using a Biomek Fx and 50 μl of a paraformaldehyde solution (Electron Microscopy Sciences cat #15712-5) diluted to 4% in DPBS (Corning cat #21-031-CM) were added per well. After a 30-minute incubation at room temperature, plates were washed 4 times with 100 μl/well of PBS using a Biotek plate washer. A 1:500 solution of primary antibody (anti-HSV gD, Virusys cat #P1103) was prepared in permeabilization buffer (Invitrogen cat #00-8333-56) and 50 μl were added into wells. After a 1-hour incubation at room temperature, 50 μl of a 1:1000 solution of secondary antibody (Alexa Fluor 488 goat anti-mouse, Thermo Fisher Scientific cat #A11001) and DAPI (Thermo Fisher Scientific cat #62248) in permeabilization buffer were added into wells and plates were incubated in the dark at room temperature for 1 hour. Plates were washed 4 times again and 50 μl of DPBS were added to all wells prior to sealing the plates with a black adhesive seal. Fluorescence was measured on a Cellomics plate reader.
Data analysis was carried out using the Thermo Scientific HCS Studio software. Briefly, cells were identified using the DAPI nuclear stain and thresholds were set to filter cells out based on shape and size. A second threshold based on green fluorescence intensity (detection of HSV-2 gD) was set to identify HSV-2 infected cells. Data was reported as the average fluorescence intensity of HSV-2 infected cells. EC50 values were defined as the compound concentration that caused a 50% decrease in the average fluorescence intensity and was calculated using a sigmoidal dose-response model to generate curve fits.

[1] abbreviates: Human alphaherpesvirus 2, HSV-2 (MS strain, MOI 0.06) infected ARPE-19 cells, assay medium containing 2% FBS, 16 hours, read-out: EC50-HSV2-FBS.
Setting [2] is: Human alphaherpesvirus 2, HSV-2 (MS strain, MOI 0.06) infected ARPE-19 cells, assay medium containing 10% human serum, 16 hours, read-out: EC50-HSV2-10% Human Serum.

In general, EC50 refers to the midpoint of the concentration-response curve. Regarding `CC[S@@](=N)(=O)c1cc2c(cc1F)C[C@@H](C)N2C(=O)[C@@H]1Cc2ccc(-c3ccccn3)cc2C1` [Example 26, (R)-ethyl((R)-5-fluoro-2-methyl-1-((R)-5-(pyridin-2-yl)-2,3-dihydro-1H-indene-2-carbonyl)indolin-6-yl)(imino)-λ^6-sulfanone], the half-maximal effective concentration (EC50) by setting is: under setting [1], 0.03 µM; under setting [2], 0.092 µM. On the same counts, the results for `CC[S@](=N)(=O)c1cc2c(cc1F)C[C@@H](C)N2C(=O)[C@@H]1Cc2ccc(-c3ccccn3)cc2C1` [Example 27, (S)-ethyl((R)-5-fluoro-2-methyl-1-((R)-5-(pyridin-2-yl)-2,3-dihydro-1H-indene-2-carbonyl)indolin-6-yl)(imino)-λ^6-sulfanone] are 0.055 µM and 0.113 µM.

Regarding `CCNS(=O)(=O)c1cc2c(cc1F)CCN2C(=O)[C@@H]1Cc2ccc(-c3ccccn3)cc2C1` [Example 30, (R)—N-ethyl-5-fluoro-1-(5-(pyridin-2-yl)-2,3-dihydro-1H-indene-2-carbonyl)indoline-6-sulfonamide], the EC50 is 0.005 µM under setting [1] and 0.304 µM under setting [2].

For `CCNS(=O)(=O)c1cc2c(cc1F)CCN2C(=O)[C@H]1Cc2cc(-c3ccccn3)ccc2O1` [Example 31, (R)—N-ethyl-5-fluoro-1-(5-(pyridin-2-yl)-2,3-dihydrobenzofuran-2-carbonyl)indoline-6-sulfonamide], the half-maximal effective concentration (EC50) is, setting by setting: under setting [1], 0.01 µM; under setting [2], 0.57 µM. Turning to `CCCC(=O)NS(=O)(=O)c1cc2c(cc1F)C[C@@H](C)N2C(=O)[C@@H]1Cc2ccc(-c3ccccn3)cc2C1` [Example 32, N—(((R)-5-fluoro-2-methyl-1-((R)-5-(pyridin-2-yl)-2,3-dihydro-1H-indene-2-carbonyl)indolin-6-yl)sulfonyl)butyramide], the EC50 under setting [1] came out at 0.231 µM and the EC50 under setting [2] was 2.38 µM. In the case of `Cc1nc(N(C)C(=O)Cc2ccc(-c3ccccn3)cc2)sc1S(N)(=O)=O` [pritelivir, reference compound], where the note is “Human alphaherpesvirus 2, ARPE-19, read-out: EC50 in HSV-2 Cellomics assay”, the EC50 came out at 0.15 µM.
